# Results reported in publication PMC9848287, “Novel thiazolone-benzenesulphonamide inhibitors of human and bacterial carbonic anhydrases” (Journal of Enzyme Inhibition and Medicinal Chemistry, 2023).
# Tests used:
# Assay in all cases: stopped-flow CO2 hydrase assay
# StCA2 = molecular target: T1, StCA2 (Salmonella enterica, UniProt O30898); format: biochemical; conditions: CO2 hydration, […] TRIS pH […] Na2SO4, […] min preincubation at room temperature
# T1 construct: gene mig-5; recombinant, obtained in-house
# T1 sequence (O30898 41-246): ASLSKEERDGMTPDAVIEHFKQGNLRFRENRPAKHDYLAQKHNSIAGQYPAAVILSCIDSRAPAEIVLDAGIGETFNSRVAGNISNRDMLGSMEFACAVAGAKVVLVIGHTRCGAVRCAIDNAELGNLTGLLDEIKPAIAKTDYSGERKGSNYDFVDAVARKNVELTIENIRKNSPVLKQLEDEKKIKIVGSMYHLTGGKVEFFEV
# hCA II = molecular target: T2, hCA II (Homo sapiens, UniProt P00918); format: biochemical
# T2 construct: gene CA2; recombinant, obtained in-house
# Description: stopped-flow CO2 hydrase assay on hCA II
# StCA1 = molecular target: T3, StCA1; format: biochemical, Salmonella enterica subsp. enterica serovar Typhimurium; conditions: CO2 hydration, […] TRIS pH […] Na2SO4, […] min preincubation at room temperature
# T3 construct: recombinant, obtained in-house
# hCA I = molecular target: T4, hCA I (Homo sapiens, UniProt P00915); format: biochemical
# T4 construct: gene CA1; recombinant, obtained in-house
# T4 sequence (P00915 2-261): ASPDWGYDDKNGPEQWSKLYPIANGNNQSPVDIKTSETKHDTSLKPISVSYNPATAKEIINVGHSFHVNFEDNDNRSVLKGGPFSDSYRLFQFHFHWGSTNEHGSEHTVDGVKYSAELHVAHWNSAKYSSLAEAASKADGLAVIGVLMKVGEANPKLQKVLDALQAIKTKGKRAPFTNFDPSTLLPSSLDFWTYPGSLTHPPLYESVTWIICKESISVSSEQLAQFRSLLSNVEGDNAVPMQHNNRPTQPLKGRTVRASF
# Description: stopped-flow CO2 hydrase assay on hCA I
# MscCAβ = molecular target: T5, MscCAβ (Mammaliicoccus sciuri, UniProt A0AAJ4SIE8); format: biochemical; conditions: CO2 hydration, […] TRIS pH […] Na2SO4, […] min preincubation at room temperature
# T5 construct: gene OWO77_14055; recombinant, obtained in-house
# T5 sequence (A0AAJ4SIE8 1-189): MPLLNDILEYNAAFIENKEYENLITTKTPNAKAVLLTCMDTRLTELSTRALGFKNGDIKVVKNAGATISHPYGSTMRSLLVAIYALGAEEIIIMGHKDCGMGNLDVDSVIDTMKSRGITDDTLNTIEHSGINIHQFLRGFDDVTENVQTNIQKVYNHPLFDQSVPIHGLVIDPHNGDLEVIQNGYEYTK
# hCA VII = molecular target: T6, hCA VII (Homo sapiens, UniProt P43166); format: biochemical
# T6 construct: gene CA7; recombinant, obtained in-house
# T6 sequence (P43166 whole entry): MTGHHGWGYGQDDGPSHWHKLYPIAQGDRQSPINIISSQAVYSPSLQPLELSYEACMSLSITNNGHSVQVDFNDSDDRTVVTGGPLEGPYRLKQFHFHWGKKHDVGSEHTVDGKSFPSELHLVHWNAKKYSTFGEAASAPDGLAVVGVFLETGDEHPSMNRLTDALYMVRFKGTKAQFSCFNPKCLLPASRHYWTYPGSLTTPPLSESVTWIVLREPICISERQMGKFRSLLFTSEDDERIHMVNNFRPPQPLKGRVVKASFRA
# Description: stopped-flow CO2 hydrase assay on hCA VII
Structure (SMILES),Ki (StCA2),Ki (hCA II),Ki (StCA1),Ki (hCA I),Ki (MscCAβ),Ki (hCA VII)
"CC(C)C1SC(Nc2ccc(S(N)(=O)=O)cc2)=NC1=O (racemic) [4e, 4-((5-Isopropyl-4-oxo-4,5-dihydrothiazol-2-yl)amino)benzenesulphonamide]",867 nM,7.3 nM,81.1 nM,85.4 nM,701 nM,7.5 nM
"NS(=O)(=O)c1ccc(NC2=NC(=O)CS2)cc1 [4a, 4-((4-Oxo-4,5-dihydrothiazol-2-yl)amino)benzenesulphonamide]",275 nM,,82.4 nM,,787 nM,1.4 nM
"CCCCC1SC(Nc2ccc(S(N)(=O)=O)cc2)=NC1=O (racemic) [4f, 4-((5-Butyl-4-oxo-4,5-dihydrothiazol-2-yl)amino)benzenesulphonamide]",904 nM,3.2 nM,72.4 nM,75 nM,2420 nM,6.2 nM
"CC1SC(Nc2ccc(S(N)(=O)=O)cc2)=NC1=O (racemic) [4b, 4-((5-Methyl-4-oxo-4,5-dihydrothiazol-2-yl)amino)benzenesulphonamide]",538 nM,4.3 nM,89.9 nM,31.5 nM,481 nM,0.9 nM
"NS(=O)(=O)c1ccc(NC2=NC(=O)C(F)S2)cc1 (racemic) [4j, 4-((5-Fluoro-4-oxo-4,5-dihydrothiazol-2-yl)amino)benzenesulphonamide]",956 nM,3.7 nM,90.9 nM,138 nM,849 nM,1.9 nM
"NS(=O)(=O)c1ccc(NC2=NC(=O)C(CCBr)S2)cc1 (racemic) [4i, 4-((5-(2-Bromoethyl)-4-oxo-4,5-dihydrothiazol-2-yl)amino)benzenesulphonamide]",515 nM,2.2 nM,69.2 nM,74.6 nM,925 nM,2.1 nM
"CCCCCCC1SC(Nc2ccc(S(N)(=O)=O)cc2)=NC1=O (racemic) [4g, 4-((5-Hexyl-4-oxo-4,5-dihydrothiazol-2-yl)amino)benzenesulphonamide]",4880 nM,13.7 nM,83.6 nM,637 nM,4030 nM,14.6 nM
"CCC1SC(Nc2ccc(S(N)(=O)=O)cc2)=NC1=O (racemic) [4c, 4-((5-Ethyl-4-oxo-4,5-dihydrothiazol-2-yl)amino)benzenesulphonamide]",481 nM,3.8 nM,86.1 nM,66.6 nM,411 nM,1.2 nM
"CCCC1SC(Nc2ccc(S(N)(=O)=O)cc2)=NC1=O (racemic) [4d, 4-((4-Oxo-5-propyl-4,5-dihydrothiazol-2-yl)amino)benzenesulphonamide]",913 nM,2.3 nM,83.3 nM,70.7 nM,73.6 nM,2 nM
"NS(=O)(=O)c1ccc(NC2=NC(=O)C(c3ccccc3)S2)cc1 (racemic) [4h, 4-((4-Oxo-5-phenyl-4,5-dihydrothiazol-2-yl)amino)benzenesulphonamide]",797 nM,1.3 nM,163 nM,90.4 nM,1060 nM,7.3 nM
